Assay [1] has as its system RKO p27 uninduced (proliferating) colon adenocarcinoma cells. The experiment in a line: Alamar Blue cell viability assay, RKO p27 uninduced (proliferating). To be noted: Homo sapiens, RKOp27, Table B1, anti-proliferative/cytotoxic activity, 72 hours, read-out: −log EC50 RKO p27 uninduced (proliferating) (converted). In kind it is cell-based. How it is done:
The anti-proliferative/cytotoxic activity of the compounds described herein can be tested on subclones of RKO human colon adenocarcinoma cells (Schmidt et al., Oncogene 19, 2423-2429; 2000) using the Alamar Blue cell viability assay (described in O'Brien et al. Eur J Biochem 267, 5421-5426, 2000). The compounds are dissolved as 10 mM solutions in DMSO and subsequently diluted in semi-logarithmic steps. DMSO dilutions are further diluted 1:100 into Dulbecco's modified Eagle's medium (DMEM) containing 10% fetal calf serum to a final concentration twice as much as the final concentration in the test. RKO subclones are seeded into 96 well flat bottom plates at a density of 4000 cells per well in a volume of 50 μl per well. 24 hours after seeding the 50 μl each of the compound dilutions in DMEM medium are added into each well of the 96 well plate. Each compound dilution is tested as triplicates. Wells containing untreated control cells are filled with 50 μl DMEM medium containing 1% DMSO. The cells are then incubated with the substances for 72 hours at 37° C. in a humidified atmosphere containing 5% carbon dioxide. To determine the viability of the cells, 10 μl of an Alamar Blue solution (Biosource) are added and the fluorescence is measured at an extinction of 544 nm and an emission of 590 nm. For the calculation of the cell viability the emission value from untreated cells is set as 100% viability and the emission rates of treated cells are set in relation to the values of untreated cells. Viabilities are expressed as % values. The Graphpad Prism program is used for the calculation of EC50 values for anti-proliferative/cytotoxic activity out of the obtained dose-response curves.
(§1) To determine the cell cycle specific mode of action, subclones of RKO colon adenocarcinoma cells (RKOp21 or RKOp27 as described by Schmidt et al. in Oncogene 19, 2423-2429; 2000) are seeded into 96 well flat bottom plates at a density of 16000 cells per well in a volume of 50 μl per well in DMEM growth medium with 10% FCS containing 10 μM Ponasterone A. 24 hours after seeding the 50 μl each of the compound dilutions in DMEM medium are added into each well of the 96-well plate. Each compound dilution is tested as triplicates. Wells containing untreated control cells are filled with 50 μl DMEM medium containing 1% DMSO. The cells are then incubated with the substances for 72 hours at 37° C. in a humidified atmosphere containing 5% carbon dioxide. To determine the viability of the cells, 10 μl of an Alamar Blue solution (Biosource) are added and the fluorescence is measured at an extinction of 544 nm and an emission of 590 nm. For the calculation of the cell viability the emission value from untreated cells is set as 100% viability and the emission rates of treated cells are set in relation to the values of untreated cells. Viabilities are expressed as % values. The Graphpad Prism program (GraphPad Software, Inc) is used for the calculation of EC50 values out of the obtained dose-response curves. Viability is compared of proliferating cells grown in the absence of the inducer Ponasterone A, versus viability of cells arrested by the expression of ectopic p27Kip1 induced by Ponasterone A.
(§2) Representative values for anti-proliferation/cytotoxicity [measured as −log EC50 (mol/l)] determined in the aforementioned assays follow from the following tables B1, B2 and B3, in which the numbers of the compounds correspond to the numbers of the examples.

The test system of assay [2] is RKO p27 induced (arrested) colon adenocarcinoma cells. The experiment in a line: Alamar Blue cell viability assay, RKO p27 induced by Ponasterone A (arrested). In kind it is cell-based. As to conditions: Homo sapiens, RKOp27, Table B1, cells arrested by Ponasterone A-induced p27Kip1, 72 hours, read-out: −log EC50 RKO p27 induced (arrested) (converted). The method, then: as §1, §2

The text below walks through data of patent US8530493B2, “Indolopyridines as Eg5 kinesin modulators” (4SC AG, priority 2006, dated 2013).

A value given as a limit tells only on which side of the number the result lay.

In the case of `COc1ccc2[nH]c3c(c2c1)C[C@@]1(C)C(=O)N(CCN)C(=O)N1[C@@H]3c1cccc(O)c1` (racemic) [Example 25, (3aSR,10RS)-2-(2-Amino-ethyl)-10-(3-hydroxy-phenyl)-6-methoxy-3a-methyl-3a,4,9,10-tetrahydro-2,9,10a-triaza-cyclopenta[b]fluorene-1,3-dione], the results for the EC50 in assay [1] and in assay [2] were no more than 39.8 nM and no less than 3160 nM, respectively.
In the same order, the values of `CNCCN1C(=O)N2[C@H](c3cccc(O)c3)c3[nH]c4ccc(OC)cc4c3C[C@@]2(C)C1=O` (racemic) [Example 27, (3aSR,10RS)-10-(3-Hydroxy-phenyl)-6-methoxy-3a-methyl-2-(2-methylamino-ethyl)-3a,4,9,10-tetrahydro-2,9,10a-triaza-cyclopenta[b]fluorene-1,3-dione] are no more than 39.8 nM and no less than 3160 nM.
In the same order, the values of `COc1ccc2[nH]c3c(c2c1)C[C@@]1(C)C(=O)N(CCNC2CC2)C(=O)N1[C@@H]3c1cccc(O)c1` (racemic) [Example 53, (3aSR,10RS)-2-(2-Cyclopropylamino-ethyl)-10-(3-hydroxy-phenyl)-6-methoxy-3a-methyl-3a,4,9,10-tetrahydro-2,9,10a-triaza-cyclopenta[b]fluorene-1,3-dione] are no more than 39.8 nM and no less than 3160 nM.
In the same order, the values of `C[C@@]12Cc3c([nH]c4ccc(OC(F)F)cc34)[C@@H](c3cccc(O)c3)N1C(=O)N(CCN1CCC1)C2=O` (racemic) [Example 44, (3aSR,10RS)-2-(2-Azetidin-1-yl-ethyl)-6-(1,1-difluoro-methoxy)-10-(3-hydroxy-phenyl)-3a-methyl-3a,4,9,10-tetrahydro-2,9,10a-triaza-cyclopenta[b]fluorene-1,3-dione] are no more than 39.8 nM and no less than 3160 nM.
Regarding `CN(C)CCN1C(=O)N2[C@H](c3cccc(O)c3)c3[nH]c4ccc(OC(F)F)cc4c3C[C@@]2(C)C1=O` (racemic) [Example 43, (3aSR,10RS)-6-(1,1-Difluoro-methoxy)-2-(2-dimethylamino-ethyl)-10-(3-hydroxy-phenyl)-3a-methyl-3a,4,9,10-tetrahydro-2,9,10a-triaza-cyclopenta[b]fluorene-1,3-dione], the EC50 in assay [1] is no more than 39.8 nM; in assay [2], no less than 3160 nM.
In the same order, the values of `CC[C@@]12Cc3c([nH]c4ccc(OC)cc34)[C@@H](c3cccc(O)c3)N1C(=O)N(CCCN(C)C)C2=O` (racemic) [Example 19, (3aSR,10RS)-2-(3-Dimethylamino-propyl)-3a-ethyl-10-(3-hydroxy-phenyl)-6-methoxy-3a,4,9,10-tetrahydro-2,9,10a-triaza-cyclopenta[b]fluorene-1,3-dione] are no more than 39.8 nM and no less than 3160 nM.
As to `COc1ccc2[nH]c3c(c2c1)C[C@@]1(C)C(=O)N(CCNC(C)C)C(=O)N1[C@@H]3c1cccc(O)c1` (racemic) [Example 47, (3aSR,10RS)-10-(3-Hydroxy-phenyl)-2-(2-isopropylamino-ethyl)-6-methoxy-3a-methyl-3a,4,9,10-tetrahydro-2,9,10a-triaza-cyclopenta[b]fluorene-1,3-dione], the EC50 in assay [1] is no more than 39.8 nM; in assay [2], no less than 3160 nM.
The matching figures for `COCCOc1ccc2[nH]c3c(c2c1)C[C@@]1(C)C(=O)N(CCN(C)C)C(=O)N1[C@@H]3c1cccc(O)c1` (racemic) [Example 6, (3aSR,10RS)-2-(2-Dimethylamino-ethyl)-10-(3-hydroxy-phenyl)-6-(2-methoxy-ethoxy)-3a-methyl-3a,4,9,10-tetrahydro-2,9,10a-triaza-cyclopenta[b]fluorene-1,3-dione]: no more than 39.8 nM and no less than 3160 nM.
On to `CCN(C)CCN1C(=O)N2[C@H](c3cccc(O)c3)c3[nH]c4ccc(Cl)cc4c3C[C@@]2(C)C1=O` (racemic) [Example 40, (3aSR,10RS)-6-Chloro-2-[2-(ethyl-methyl-amino)-ethyl]-10-(3-hydroxy-phenyl)-3a-methyl-3a,4,9,10-tetrahydro-2,9,10a-triaza-cyclopenta[b]fluorene-1,3-dione], for which the EC50 in assay [1] was no more than 39.8 nM; in assay [2] it was no less than 3160 nM.
On to `CCN(C)CCN1C(=O)N2[C@H](c3cccc(O)c3)c3[nH]c4ccc(OC)cc4c3C[C@@]2(C)C1=O` (racemic) [Example 52, (3aSR,10RS)-2-[2-(Ethyl-methyl-amino)-ethyl]-10-(3-hydroxy-phenyl)-6-methoxy-3a-methyl-3a,4,9,10-tetrahydro-2,9,10a-triaza-cyclopenta[b]fluorene-1,3-dione], for which the EC50 in assay [1] is no more than 39.8 nM; in assay [2], no less than 3160 nM.
The matching figures for `COc1ccc2[nH]c3c(c2c1)C[C@@]1(C)C(=O)N(CCNCC(C)C)C(=O)N1[C@@H]3c1cccc(O)c1` (racemic) [Example 49, (3aSR,10RS)-10-(3-Hydroxy-phenyl)-2-(2-isobutylamino-ethyl)-6-methoxy-3a-methyl-3a,4,9,10-tetrahydro-2,9,10a-triaza-cyclopenta[b]fluorene-1,3-dione]: no more than 39.8 nM and no less than 3160 nM.
The matching figures for `COc1ccc2[nH]c3c(c2c1)C[C@@]1(C)C(=O)N(CCN2CCN(C(C)=O)CC2)C(=O)N1[C@@H]3c1cccc(O)c1` (racemic) [Example 32, (3aSR,10RS)-2-[2-(4-Acetyl-piperazin-1-yl)-ethyl]-10-(3-hydroxy-phenyl)-6-methoxy-3a-methyl-3a,4,9,10-tetrahydro-2,9,10a-triaza-cyclopenta[b]fluorene-1,3-dione]: 39.8 to 251 nM and no less than 3160 nM.
In the case of `CC(C)N(C)CCN1C(=O)N2[C@H](c3cccc(O)c3)c3[nH]c4ccc(Cl)cc4c3C[C@@]2(C)C1=O` (racemic) [Example 39, (3aSR,10RS)-6-Chloro-10-(3-hydroxy-phenyl)-2-[2-(isopropyl-methyl-amino)-ethyl]-3a-methyl-3a,4,9,10-tetrahydro-2,9,10a-triaza-cyclopenta[b]fluorene-1,3-dione], the values for the EC50 in assay [1] and in assay [2] were no more than 39.8 nM and no less than 3160 nM, respectively.
In the same order, the values of `COc1ccc2[nH]c3c(c2c1)C[C@@]1(C)C(=O)N(CCCCN(C)C)C(=O)N1[C@@H]3c1cccc(O)c1` (racemic) [Example 14, (3aSR,10RS)-2-(4-Dimethylamino-butyl)-10-(3-hydroxy-phenyl)-6-methoxy-3a-methyl-3a,4,9,10-tetrahydro-2,9,10a-triaza-cyclopenta[b]fluorene-1,3-dione] are no more than 39.8 nM and no less than 3160 nM.
In the case of `CN(C)CCCN1C(=O)N2[C@H](c3cccc(O)c3)c3[nH]c4ccc(Cl)cc4c3C[C@@]2(C)C1=O` (racemic) [Example 16, (3aSR,10RS)-6-Chloro-2-(3-dimethylamino-propyl)-10-(3-hydroxy-phenyl)-3a-methyl-3a,4,9,10-tetrahydro-2,9,10a-triaza-cyclopenta[b]fluorene-1,3-dione], the EC50 is no more than 39.8 nM in assay [1] and no less than 3160 nM in assay [2].
The matching figures for `COc1ccc2[nH]c3c(c2c1)C[C@@]1(C)C(=O)N(CCNCC2CC2)C(=O)N1[C@@H]3c1cccc(O)c1` (racemic) [Example 48, (3aSR,10RS)-2-[2-(Cyclopropylmethyl-amino)-ethyl]-10-(3-hydroxy-phenyl)-6-methoxy-3a-methyl-3a,4,9,10-tetrahydro-2,9,10a-triaza-cyclopenta[b]fluorene-1,3-dione]: no more than 39.8 nM and no less than 3160 nM.
The matching figures for `CCOc1ccc2[nH]c3c(c2c1)C[C@@]1(C)C(=O)N(CCN(C)C)C(=O)N1[C@@H]3c1cccc(O)c1` (racemic) [Example 23, (3aSR,10RS)-2-(2-Dimethylamino-ethyl)-6-ethoxy-10-(3-hydroxy-phenyl)-3a-methyl-3a,4,9,10-tetrahydro-2,9,10a-triaza-cyclopenta[b]fluorene-1,3-dione]: no more than 39.8 nM and no less than 3160 nM.
